Laboratory results reported in article PMC3026091 (Antiviral research, 2010).

How the values were obtained:
[1] = tested on: DEN2V NS2B-NS3pro; type: biochemical, dengue 2 virus (strain TSV01); details: mechanism of inhibition of DEN2V NS2B-NS3pro, Dynafit model selection
[2] = target: T1, Bovine pancreatic trypsin (Bos taurus, UniProt P00760); assay: Steady-state kinetics of inhibitors of trypsin; type: biochemical; details: BOC-GRR-AMC fluorogenic substrate; for Mechanism (trypsin): mechanism of trypsin inhibition
T1 sequence (P00760 24-246): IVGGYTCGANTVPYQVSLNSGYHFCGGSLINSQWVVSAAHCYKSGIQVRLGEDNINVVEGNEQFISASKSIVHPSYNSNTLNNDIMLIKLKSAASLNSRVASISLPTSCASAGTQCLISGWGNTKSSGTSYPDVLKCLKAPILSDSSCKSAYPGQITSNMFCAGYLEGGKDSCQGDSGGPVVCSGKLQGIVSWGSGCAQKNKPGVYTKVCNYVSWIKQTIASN

[3] = target: T1, Bovine pancreatic trypsin; assay: Trypsin inhibition assay with chromogenic BAPNA substrate; type: biochemical; details: analog 100 µM, trypsin 60 µM, BAPNA 500 µM; data not shown

Row | Structure (SMILES) | Mechanism [1] | Mechanism (trypsin) [2] | Ki ([2]; read-out: Ki2 trypsin, 50 nM trypsin) [µM] | Inhibition of trypsin cleavage of the chromogenic substrate BAPNA [3]
1 | O=C1c2c(O)ccc([N+](=O)[O-])c2C(=O)c2c([N+](=O)[O-])ccc(O)c21 [ARDP0006] | competitive inhibition model | uncompetitive trypsin inhibitor | 13 ± 0.1 | inhibited trypsin cleavage of the fluorogenic substrate but not the chromogenic substrate
2 | N=C(N)c1ccccc1 [Benzamidine, reference compound] | – | Competitive | – | –
